Source: PMC9655119, “Sustained Activation of CLR/RAMP Receptors by Gel-Forming Agonists” (International Journal of Molecular Sciences, 2022)
Where two headings read alike, the source gives them in different places.

How the values were obtained:
Assay type in all cases: cell-based
[1] = system: primary human lymphatic microvascular endothelial (HLME) cells; experiment: HLME cell survival (MTT assay); settings: 30, 100, 300 nmoles/L, medium with 0.1% FBS, 72 h, quintuplicate samples
Experimental: (§1) Primary human lymphatic microvascular endothelial cells (HLME cells; Cell Applications, Inc., San Diego, CA, USA) were maintained in a microvascular endothelial cell growth medium supplemented with 10% fetal bovine serum (FBS). […] After 72-h incubation, cell viability was determined with the 3-(4,5-dimethylthiazol-2-yl)-2,5-diphenyltetrazolium bromide (MTT) assay (Promega). To evaluate the effects on endothelial cell survival, HLME cells were treated with different concentrations of the agonist or controls (30, 100, and 300 nmoles/L) and cultured in a basal medium with 0.1% FBS for 72 h. Cell viability was then assayed with the MTT assay.

human CLR/RAMP1 = biological target: T1, human CLR/RAMP1 (Homo sapiens, UniProt O60894+Q16602); experiment: CLR/RAMP1 receptor-activation assay (DiscoverX cAMP Hunter, HitHunter cAMP XS+); settings: for Emax: read-out: CLR/RAMP1 Max Activity
T1 construct: host or cells: 1321N1 cells (cAMP Hunter cell line)
Experimental: (§2) The bioactivity of peptide analogs was studied using CLR/RAMP1, CLR/RAMP2, and CLR/RAMP3 assays by DiscoveRx (Fremont, CA, USA) in cells that stably express human CLR/RAMP1 (1321N1 cells), CLR/RAMP2 (CHO-K1 cells), or CLR/RAMP3 (CHO-K1 cells). The dose-dependent stimulatory effect of agonists was studied in duplicate, at 10 different concentrations. Determination of the half-maximal effective concentration (EC50) was performed using a 10-point dose-response curves. The starting concentration was 1.0 μM, and it was serially diluted 3-fold, in DMSO.
Cells were seeded in a total volume of 20 μL into 384-well microplates, and the activity was determined using the DiscoverX HitHunter cAMP XS + assay. Before the assay, media was aspirated from cells and replaced with 15 μL 2:1 HBSS/10 mM Hepes: cAMP XS + Ab reagent. Intermediate dilution of samples was performed to generate 4X sample in assay buffer, and 5 μL of the 4X sample was added to cells and incubated at 37°C. Vehicle concentration was 1%.
The chemiluminescent signal was read with a PerkinElmer instrument.

[2] = system: primary human lymphatic microvascular endothelial (HLME) cells; experiment: HLME cell proliferation (MTT assay); settings: 30, 100, 300 nmoles/L, medium with 2% FBS, 72 h, quintuplicate samples
Experimental: as §1

human CLR/RAMP2 = biological target: T2, human CLR/RAMP2 (Homo sapiens, UniProt O60895+Q16602); experiment: CLR/RAMP2 receptor-activation assay (PathHunter β-Arrestin); settings: […], read-out: CLR/RAMP2 Max Activity
T2 construct: host or cells: CHO-K1 cells (PathHunter β-Arrestin cell line)
Experimental: as §2
In this assay, the CLR was fused in frame with a small enzyme donor fragment ProLink™ (PK). The receptor was co-expressed with a fusion protein of β-arrestin and an N-terminal deletion mutant of β-galactosidase (i.e., enzyme acceptor). Activation of the CLR/RAMP2 receptor stimulated the binding of β-arrestin to the PK-tagged receptor and led to an increase in enzyme activities which can then be measured with the PathHunter detection reagents. PathHunter cell lines were seeded in a total volume of 20 μL into 384-well microplates and incubated at 37 °C prior to the assay. Intermediate dilution of samples was performed to generate 5X samples in the assay buffer. A 5 μL aliquot of 5X sample was added to cells and incubated at 37 °C for 90 min. Vehicle concentration was 1%.

[3] = percentage of positive control β-CGRP

T1 sequence (Q16602 23-461): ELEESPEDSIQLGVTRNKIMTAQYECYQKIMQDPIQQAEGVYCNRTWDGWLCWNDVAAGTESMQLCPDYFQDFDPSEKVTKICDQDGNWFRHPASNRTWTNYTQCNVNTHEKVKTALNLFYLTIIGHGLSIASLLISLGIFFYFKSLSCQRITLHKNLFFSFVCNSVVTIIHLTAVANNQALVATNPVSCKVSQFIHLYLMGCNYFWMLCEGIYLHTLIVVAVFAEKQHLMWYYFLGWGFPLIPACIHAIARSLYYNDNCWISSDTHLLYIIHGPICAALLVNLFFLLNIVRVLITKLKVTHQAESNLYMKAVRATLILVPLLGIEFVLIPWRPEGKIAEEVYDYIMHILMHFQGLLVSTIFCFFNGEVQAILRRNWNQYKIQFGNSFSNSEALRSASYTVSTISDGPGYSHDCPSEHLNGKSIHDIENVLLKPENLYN
T1 sequence (O60894 27-148): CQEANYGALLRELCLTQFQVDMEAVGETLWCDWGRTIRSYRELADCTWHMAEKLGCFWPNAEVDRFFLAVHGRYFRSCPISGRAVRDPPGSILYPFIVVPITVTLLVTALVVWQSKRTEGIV
T2 sequence (Q16602 23-461): as the sequence (Q16602 23-461) above
T2 sequence (O60895 43-175): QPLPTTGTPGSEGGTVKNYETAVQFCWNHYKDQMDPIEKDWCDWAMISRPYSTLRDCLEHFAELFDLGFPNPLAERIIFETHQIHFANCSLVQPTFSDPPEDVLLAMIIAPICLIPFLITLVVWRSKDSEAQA

Row | Emax (human CLR/RAMP1; [3]) | EC50 (human CLR/RAMP1; 1321N1 cells stably expressing human CLR/RAMP1, cAMP read-out, 10-point dose-response in duplicate, start 1.0 μM, 3-fold serial dilution in DMSO) | Emax (human CLR/RAMP2; percentage of positive control ADM1-52) | SMILES | effect on HLME cell survival [1] | effect on HLME cell proliferation [2] | Emax (human CLR/RAMP1) | Emax (human CLR/RAMP2)
1 |  |  |  | CC[C@H](C)[C@H](NC(=O)[C@H](CCC(N)=O)NC(=O)[C@H](Cc1c[nH]cn1)NC(=O)[C@H](C)NC(=O)[C@H](CC(C)C)NC(=O)[C@H](CCCCN)NC(=O)[C@H](CCC(N)=O)NC(=O)[C@@H](NC(=O)[C@@H](NC(=O)[C@@H]1CSSC[C@H](NC(=O)CNC(=O)[C@H](CCCCN)NC(C)=O)C(=O)N[C@@H](CCCNC(=N)N)C(=O)N[C@@H](Cc2ccccc2)C(=O)NCC(=O)N[C@@H]([C@@H](C)O)C(=O)N1)[C@@H](C)O)C(C)C)C(=O)N[C@@H](Cc1ccc(O)cc1)C(=O)N[C@@H](CCC(N)=O)C(=O)N[C@@H](Cc1ccccc1)C(=O)N[C@H](C(=O)N[C@@H](CC(=O)O)C(=O)N[C@@H](CCCCN)C(=O)N[C@@H](CC(=O)O)C(=O)N[C@@H](CCCCN)C(=O)N[C@@H](CC(=O)O)C(=O)N[C@@H](CC(N)=O)C(=O)N[C@@H](CO)C(=O)N[C@@H](C)C(=O)N1CCC[C@H]1C(=O)N[C@H](C(=O)N[C@@H](CC(=O)O)C(=O)N1CCC[C@H]1C(=O)N[C@@H](CO)C(=O)N[C@@H](CO)C(=O)N1CCC[C@H]1C(=O)N[C@@H](Cc1c[nH]cn1)C(=O)N[C@@H](CO)C(=O)N[C@@H](Cc1ccc(O)cc1)C(N)=O)C(C)C)[C@@H](C)O [Analog B-6] | minimal effects |  |  | 
2 | 63% |  |  | CC[C@H](C)[C@H](NC(=O)[C@H](CCC(N)=O)NC(=O)[C@H](Cc1c[nH]cn1)NC(=O)[C@H](C)NC(=O)[C@H](CC(C)C)NC(=O)[C@H](CCCCN)NC(=O)[C@H](CCC(N)=O)NC(=O)[C@@H](NC(=O)[C@@H](NC(=O)[C@@H]1CSSC[C@H](NC(=O)CNC(=O)[C@H](Cc2ccccc2)NC(=O)[C@H](CO)NC(=O)[C@H](CCCNC(=N)N)NC(=O)[C@H](CC(C)C)NC(=O)CNC(=O)[C@H](CCC(N)=O)NC(=O)[C@H](Cc2ccccc2)NC(=O)[C@H](CC(N)=O)NC(=O)[C@H](CC(N)=O)NC(=O)[C@H](CCSC)NC(=O)[C@H](CO)NC(=O)[C@H](CCC(N)=O)NC(=O)[C@H](CCCNC(=N)N)NC(=O)[C@@H](N)Cc2ccc(O)cc2)C(=O)N[C@@H](CCCNC(=N)N)C(=O)N[C@@H](Cc2ccccc2)C(=O)NCC(=O)N[C@@H]([C@@H](C)O)C(=O)N1)[C@@H](C)O)C(C)C)C(=O)N[C@@H](Cc1ccc(O)cc1)C(=O)N[C@@H](CCC(N)=O)C(=O)N[C@@H](Cc1ccccc1)C(=O)N[C@H](C(=O)N[C@@H](CC(=O)O)C(=O)N[C@@H](CCCCN)C(=O)N[C@@H](CC(=O)O)C(=O)N[C@@H](CCCCN)C(=O)N[C@@H](CC(=O)O)C(=O)N[C@@H](CC(N)=O)C(=O)N[C@H](C(=O)N[C@@H](C)C(=O)N1CCC[C@H]1C(=O)N[C@@H](CCCNC(=N)N)C(=O)N[C@@H](CO)C(=O)N[C@@H](CCCCN)C(=O)N[C@H](C(=O)N[C@@H](CO)C(=O)N1CCC[C@H]1C(=O)N[C@@H](CCC(N)=O)C(=O)NCC(=O)N[C@@H](Cc1ccc(O)cc1)C(N)=O)[C@@H](C)CC)C(C)C)[C@@H](C)O [ADM1-52] | minimal effects | minimal effects |  | 
3 | 69% | > 100 nM | 102% | CC[C@H](C)[C@H](NC(=O)[C@H](CCC(N)=O)NC(=O)[C@H](Cc1c[nH]cn1)NC(=O)[C@H](C)NC(=O)[C@H](CC(C)C)NC(=O)[C@H](CCCCN)NC(=O)[C@H](CCC(N)=O)NC(=O)[C@@H](NC(=O)[C@@H](NC(=O)[C@@H]1CSSC[C@H](NC(=O)CNC(=O)[C@@H](N)Cc2ccccc2)C(=O)N[C@@H](CCCNC(=N)N)C(=O)N[C@@H](Cc2ccccc2)C(=O)NCC(=O)N[C@@H]([C@@H](C)O)C(=O)N1)[C@@H](C)O)C(C)C)C(=O)N[C@@H](Cc1ccc(O)cc1)C(=O)N[C@@H](CCC(N)=O)C(=O)N[C@@H](Cc1ccccc1)C(=O)N[C@H](C(=O)N[C@@H](CC(=O)O)C(=O)N[C@@H](CCCCN)C(=O)N[C@@H](CC(=O)O)C(=O)N[C@@H](CCCCN)C(=O)N[C@@H](CC(=O)O)C(=O)N[C@@H](CC(N)=O)C(=O)N[C@H](C(=O)N[C@@H](C)C(=O)N1CCC[C@H]1C(=O)N[C@@H](CCCNC(=N)N)C(=O)N[C@@H](CO)C(=O)N[C@@H](CCCCN)C(=O)N[C@H](C(=O)N[C@@H](CO)C(=O)N1CCC[C@H]1C(=O)N[C@@H](CCC(N)=O)C(=O)NCC(=O)N[C@@H](Cc1ccc(O)cc1)C(N)=O)[C@@H](C)CC)C(C)C)[C@@H](C)O [ADM14-52, reference compound] | minimal effects | minimal effects |  | 
4 |  |  |  | CCCCCCCCCCCCCCCC(=O)NCCCC[C@H](NC(=O)COCCOCCN)C(=O)NCC(=O)N[C@H]1CSSC[C@@H](C(=O)N[C@H](C(=O)N[C@H](C(=O)N[C@@H](CCC(N)=O)C(=O)N[C@@H](CCCCN)C(=O)N[C@@H](CC(C)C)C(=O)N[C@@H](C)C(=O)N[C@@H](Cc2c[nH]cn2)C(=O)N[C@@H](CCC(N)=O)C(=O)N[C@H](C(=O)N[C@@H](Cc2ccc(O)cc2)C(=O)N[C@@H](CCC(N)=O)C(=O)N[C@@H](Cc2ccccc2)C(=O)N[C@H](C(=O)N[C@@H](CC(=O)O)C(=O)N[C@@H](CCCCN)C(=O)N[C@@H](CC(=O)O)C(=O)N[C@@H](CCCCN)C(=O)N[C@@H](CC(=O)O)C(=O)N[C@@H](CC(N)=O)C(=O)N[C@@H](CO)C(=O)N[C@@H](C)C(=O)N2CCC[C@H]2C(=O)N[C@H](C(=O)N[C@@H](CC(=O)O)C(=O)N2CCC[C@H]2C(=O)N[C@@H](CO)C(=O)N[C@@H](CO)C(=O)N2CCC[C@H]2C(=O)N[C@@H](Cc2c[nH]cn2)C(=O)N[C@@H](CO)C(=O)N[C@@H](Cc2ccc(O)cc2)C(N)=O)C(C)C)[C@@H](C)O)[C@@H](C)CC)C(C)C)[C@@H](C)O)NC(=O)[C@H]([C@@H](C)O)NC(=O)CNC(=O)[C@H](Cc2ccccc2)NC(=O)[C@H](CCCNC(=N)N)NC1=O [Analog B-1] |  |  | 54% | 143%
5 |  |  |  | CCCCCCCCCCCCCCCC(=O)NCCCC[C@H](NC(=O)COCCOCCN)C(=O)NCC(=O)N[C@H]1CSSC[C@@H](C(=O)N[C@H](C(=O)N[C@H](C(=O)N[C@@H](CCC(N)=O)C(=O)N[C@@H](CCCCN)C(=O)N[C@@H](CC(C)C)C(=O)N[C@@H](C)C(=O)N[C@@H](Cc2c[nH]cn2)C(=O)N[C@@H](CCC(N)=O)C(=O)N[C@H](C(=O)N[C@@H](Cc2ccc(O)cc2)C(=O)N[C@@H](CCC(N)=O)C(=O)N[C@@H](Cc2ccccc2)C(=O)N[C@H](C(=O)N[C@@H](CC(=O)O)C(=O)N[C@@H](CCCCN)C(=O)N[C@@H](CC(=O)O)C(=O)N[C@H](C(=O)N[C@@H](C)C(=O)N2CCC[C@H]2C(=O)N[C@@H](CCCNC(=N)N)C(=O)N[C@@H](CO)C(=O)N[C@@H](CCCCN)C(=O)N[C@H](C(=O)N[C@@H](CO)C(=O)N2CCC[C@H]2C(=O)N[C@@H](CCC(N)=O)C(=O)NCC(=O)N[C@@H](Cc2ccc(O)cc2)C(N)=O)[C@@H](C)CC)C(C)C)[C@@H](C)O)[C@@H](C)CC)C(C)C)[C@@H](C)O)NC(=O)[C@H]([C@@H](C)O)NC(=O)CNC(=O)[C@H](Cc2ccccc2)NC(=O)[C@H](CCCNC(=N)N)NC1=O [Analog D-6] |  |  | 56% | 74%
6 |  |  |  | CCCCCCCCCCCCCCCC(=O)NCCCC[C@H](NC(=O)COCCOCCN)C(=O)NCC(=O)N[C@H]1CSSC[C@@H](C(=O)N[C@H](C(=O)N[C@H](C(=O)N[C@@H](CCC(N)=O)C(=O)N[C@@H](CCCCN)C(=O)N[C@@H](CC(C)C)C(=O)N[C@@H](C)C(=O)N[C@@H](Cc2c[nH]cn2)C(=O)N[C@@H](CCC(N)=O)C(=O)N[C@H](C(=O)N[C@@H](Cc2ccc(O)cc2)C(=O)N[C@@H](CCC(N)=O)C(=O)N[C@@H](Cc2ccccc2)C(=O)N[C@H](C(=O)N[C@@H](CC(=O)O)C(=O)N[C@@H](CCCCN)C(=O)N[C@@H](CC(=O)O)C(=O)N[C@@H](CCCCN)C(=O)N[C@@H](CC(=O)O)C(=O)N[C@@H](CC(N)=O)C(=O)N[C@H](C(=O)N[C@@H](CC(=O)O)C(=O)N2CCC[C@H]2C(=O)N[C@@H](CO)C(=O)N[C@@H](CO)C(=O)N2CCC[C@H]2C(=O)N[C@@H](Cc2c[nH]cn2)C(=O)N[C@@H](CO)C(=O)N[C@@H](Cc2ccc(O)cc2)C(N)=O)C(C)C)[C@@H](C)O)[C@@H](C)CC)C(C)C)[C@@H](C)O)NC(=O)[C@H]([C@@H](C)O)NC(=O)CNC(=O)[C@H](Cc2ccccc2)NC(=O)[C@H](CCCNC(=N)N)NC1=O [Analog D-4] |  |  | 67% | 82%
